Experimental data reported in patent US20060160864A1, “Acrylamide derivative, process for producing the same, and use” (priority 2003, published 2006).

The molecules below were run against T1, human CCR5 (Homo sapiens, UniProt P51681) (assay: Inhibition of [125I]-RANTES binding to CCR5/CHO cells (CCR5 antagonist activity)). Conditions: 40 min, test compound 1 μM, [125I]-RANTES 100 pM, CCR5/CHO strains, room temperature, read-out: Binding Inhibitory Ratio (%).
T1 construct: expressed in transfected cells
T1 sequence (P51681 whole entry): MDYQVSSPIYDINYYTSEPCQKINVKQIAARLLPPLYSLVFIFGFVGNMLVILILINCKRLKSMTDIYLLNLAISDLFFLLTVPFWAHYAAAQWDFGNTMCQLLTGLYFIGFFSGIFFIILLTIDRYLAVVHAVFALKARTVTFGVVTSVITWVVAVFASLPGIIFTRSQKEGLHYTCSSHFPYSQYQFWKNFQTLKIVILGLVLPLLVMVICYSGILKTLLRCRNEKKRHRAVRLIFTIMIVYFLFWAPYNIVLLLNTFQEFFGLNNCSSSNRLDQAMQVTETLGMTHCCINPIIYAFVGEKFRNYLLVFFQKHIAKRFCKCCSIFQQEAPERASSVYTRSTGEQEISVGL
Procedure: Cloning of a CCR5 gene was conducted from human spleen cDNA by a PCR method. Using 0.5 ng of spleen cDNA (Toyobo Co., Ltd., QUICK-Clone cDNA) as a template, the PCR reaction was carried out in a DNA Thermal Cycler 480 (Perkin Elmer) using a TaKaRa EX Taq (Takara Shuzo Co., Ltd.) (reaction conditions: 30 cycles of treatments at 95° C. for 1 minute, at 60° C. for 1 minute, and at 75° C. for 5 minutes) by adding 25 pmol of primers, SEQ ID NO. 1 (sequence length: 34; sequence type: nucleic acid; number of chains: a single chain; topology: linear; sequence kind: other nucleic acid, synthetic DNA) described in Experimental Example (1) of WO 99/32100, and SEQ ID NO. 2 (sequence length: 34; sequence type: nucleic acid; number of chains: a single chain; topology: linear; sequence kind: other nucleic acid, synthetic DNA) described in Experimental Example (1) of WO 99/32100, respectively, which were prepared by referring to the base sequence of the CCR5 gene described by Samson et al. (Biochemistry 35 (11), 3362-3367 (1996)). The PCR products were subjected to agarose gel electrophoresis to collect DNA fragments of about 1.0 kb. Then, the CCR5 gene was cloned using an Original TA Cloning Kit (Funakoshi Co., Ltd.).
The plasmids obtained above were digested with restriction enzymes XbaI (Takara Shuzo Co., Ltd.) and BamHI (Takara Shuzo Co., Ltd.), and subjected to agarose gel electrophoresis to collect DNA fragments of about 1.0 kb. The DNA fragments and a plasmid pcDNA3.1 (Funakoshi Co., Ltd.) for expression in animal cells, which was previously digested with XbaI and BamHI, were mixed and ligated by DNA Ligation Kit Ver.2 (Takara Shuzo Co., Ltd.). Transformation of E. coli JM109 competent cells (Takara Shuzo Co., Ltd.) gave plasmid pCKR5.
CHO-K1 cells grown in a 750 ml tissue culture flask (Becton Dickinson) using Ham's F12 medium (Nihon Pharmaceutical Co., Ltd.) containing 10% fetal bovine serum (Lifetech Oriental) were collected from the flask by using 0.5 g/L trypsin-0.2 g/L EDTA (Lifetech Oriental). The cells were then washed with PBS (Lifetech Oriental), centrifuged (1000 rpm, 5 minutes), and suspended in PBS. Next, DNA was introduced into the cells using Gene Pulser (Bio-Rad Laboratories Inc.) under the following conditions. Namely, 8×10^6 cells and 10 μg of plasmid pCKR5 for expression of human CCR5 were added into a cuvette of a 0.4 cm-gap, and electroporation was carried out at an electric voltage of 0.25 kV and a capacitance of 960 μF. Subsequently, the cells were transferred into Ham's F12 medium containing 10% fetal bovine serum, and incubated for 24 hours. The cells were again collected, centrifuged, and then suspended in Ham's F12 medium containing 10% fetal bovine serum and Geneticin (Lifetech Oriental) at a concentration of 500 μg/ml. The suspension of cells was diluted to a concentration of 10^4 cells/ml, and inoculated on a 96-well plate (Becton Dickinson) to give Geneticin-resistant strains.
Subsequently, the Geneticin-resistant strains were cultured in the 96-well plate (Becton Dickinson), and then CCR5-expressing cells were selected from the resistant strains. Namely, an assay buffer (Ham's F12 medium containing 0.5% BSA, and 20 mM HEPES (Wako Pure Chemical Industries, Ltd., pH 7.2)) containing 200 pM [^125I]-RANTES (Amersham) as a ligand was added to each well and the binding reaction was carried out at room temperature for 40 minutes. Each well plate containing the cells was washed with ice-cooled PBS, and then to each well was added 1 M NaOH in an amount of 50 μl/well, which was stirred. The cells to which the ligand bound specifically, i.e., CCR5/CHO strains, were selected by measurement of radioactivity by γ-counter.
The CCR5/CHO strains were inoculated on a 96-well microplate at a concentration of 5×10^4 cells/well, respectively and were cultured for 24 hours. […]
Work on `CCCCOCCOc1ccc(-c2ccc(N3CCC(C(=O)OC)C3)c(/C=C(\C)C(=O)Nc3ccc([S@@+]([O-])Cc4cncn4CCC)cc3)c2)cc1` (single isomer, unassigned) [Compound 57, (Ss)-(2E)-3-[4′-(2-butoxyethoxy)-4-[3-(methoxycarbonyl)pyrrolidin-1-yl]-1,1′-biphenyl-3-yl]-2-methyl-N-[4-[[(1-propyl-1H-imidazol-5-yl)methyl]sulfinyl]phenyl]acrylamide] yielded an inhibition at 1 µM of 100%.
Molecule `CCCCOCCOc1ccc(-c2ccc(N3CCC(C(=O)O)C3)c(/C=C(\C)C(=O)Nc3ccc([S@@+]([O-])Cc4cncn4CCC)cc3)c2)cc1` (single isomer, unassigned) [Compound 59, (Ss)-(2E)-3-[4′-(2-butoxyethoxy)-4-(3-carboxypyrrolidin-1-yl)-1,1′-biphenyl-3-yl]-2-methyl-N-[4-[[(1-propyl-1H-imidazol-5-yl)methyl]sulfinyl]phenyl]acrylamide] has an inhibition at 1 µM of 89%.
In the case of `CCCCOCCOc1ccc(-c2ccc(N3CCCC3C)c(/C=C(\C)C(=O)Nc3ccc([S@@+]([O-])Cc4cncn4CCC)cc3)c2)cc1` (some centres unmarked) [Compound 17, (Ss)-(2E)-3-[4′-(2-butoxyethoxy)-4-(2-methylpyrrolidin-1-yl)-1,1′-biphenyl-3-yl]-2-methyl-N-[4-[[(1-propyl-1H-imidazol-5-yl)methyl]sulfinyl]phenyl]acrylamide], the inhibition at 1 µM is reported as 100%.
In the case of `CCCCOCCOc1ccc(-c2ccc(N3CCC(C)C3)c(/C=C(\C)C(=O)Nc3ccc([S@@+]([O-])Cc4cncn4CCC)cc3)c2)cc1` (some centres unmarked) [Compound 23, (Ss)-(2E)-3-[4′-(2-butoxyethoxy)-4-(3-methylpyrrolidin-1-yl)-1,1′-biphenyl-3-yl]-2-methyl-N-[4-[[(1-propyl-1H-imidazol-5-yl)methyl]sulfinyl]phenyl]acrylamide], the inhibition at 1 µM is reported as 100%.
With `CCCCOCCOc1ccc(-c2ccc(N3CCCC3)c(/C(C)=C/C(=O)Nc3ccc([S@@+]([O-])Cc4cncn4CCC)cc3)c2)cc1` [Compound 35, (S)-(2E)-3-[4′-(2-butoxyethoxy)-4-pyrrolidin-1-yl-1,1′-biphenyl-3-yl]-N-[4-[[(1-propyl-1H-imidazol-5-yl)methyl]sulfinyl]phenyl]but-2-enoic amide] the inhibition at 1 µM was 100%.
`CCCCOCCOc1ccc(-c2ccc(N3CCC(COC(C)=O)C3)c(/C=C(\C)C(=O)Nc3ccc([S@@+]([O-])Cc4cncn4CCC)cc3)c2)cc1` (some centres unmarked) [Compound 38, (Ss)-(2E)-3-[4-[3-(acetoxymethyl)pyrrolidin-1-yl]-4′-(2-butoxyethoxy)-1,1′-biphenyl-3-yl]-2-methyl-N-[4-[[(1-propyl-1H-imidazol-5-yl)methyl]sulfinyl]phenyl]acrylamide] showed an inhibition at 1 µM of 93%.
`CCCCOCCOc1ccc(-c2ccc(N3CCC(CO)C3)c(/C=C(\C)C(=O)Nc3ccc([S@@+]([O-])Cc4cncn4CCC)cc3)c2)cc1` (some centres unmarked) [Compound 39, (Ss)-(2E)-3-[4′-(2-butoxyethoxy)-4-[3-(hydroxymethyl)pyrrolidin-1-yl]-1,1′-biphenyl-3-yl]-2-methyl-N-[4-[[(1-propyl-1H-imidazol-5-yl)methyl]sulfinyl]phenyl]acrylamide] showed an inhibition at 1 µM of 99%.
In the case of `CCCCOCCOc1ccc(-c2ccc(N3CCC(C(=O)OC)C3)c(/C=C(\C)C(=O)Nc3ccc([S@@+]([O-])Cc4cncn4CCC)cc3)c2)cc1` (some centres unmarked) [Compound 40, (Ss)-(2E)-3-[4′-(2-butoxyethoxy)-4-[3-(methoxycarbonyl)pyrrolidin-1-yl]-1,1′-biphenyl-3-yl]-2-methyl-N-[4-[[(1-propyl-1H-imidazol-5-yl)methyl]sulfinyl]phenyl]acrylamide], the inhibition at 1 µM is reported as 100%.
`CCCCOCCOc1ccc(-c2ccc(N3CC(C)C(C)C3)c(/C=C(\C)C(=O)Nc3ccc([S@@+]([O-])Cc4cncn4CCC)cc3)c2)cc1` (stereo partly drawn) [Compound 42, (S)-(2E)-3-[4′-(2-butoxyethoxy)-4-(3,4-dimethylpyrrolidin-1-yl)-1,1′-biphenyl-3-yl]-2-methyl-N-[4-[[(1-propyl-1H-imidazol-5-yl)methyl]sulfinyl]phenyl]acrylamide] gave an inhibition at 1 µM of 100%.
`CCCCOCCOc1ccc(-c2ccc(N3CCC(C(N)=O)C3)c(/C=C(\C)C(=O)Nc3ccc([S@@+]([O-])Cc4cncn4CCC)cc3)c2)cc1` (some centres unmarked) [Compound 43, (Ss)-(2E)-3-[4′-(2-butoxyethoxy)-4-(3-carbamoylpyrrolidin-1-yl)-1,1′-biphenyl-3-yl]-2-methyl-N-[4-[[(1-propyl-1H-imidazol-5-yl)methyl]sulfinyl]phenyl]acrylamide] gave an inhibition at 1 µM of 86%.
For `CCCCOCCOc1ccc(-c2cnc(N3CCCC3)c(/C=C(\C)C(=O)Nc3ccc([S@@+]([O-])Cc4cncn4CCC)cc3)c2)cc1` [Compound 47, (S)-(2E)-3-[5-[4-(2-butoxyethoxy)phenyl]-2-pyrrolidin-1-ylpyridin-3-yl]-2-methyl-N-[4-[[(1-propyl-1H-imidazol-5-yl)methyl]sulfinyl]phenyl]acrylamide], the inhibition at 1 µM was 96%.
Work on `CCCCOCCOc1ccc(-c2cnc(N3CCC(C)C3)c(/C=C(\C)C(=O)Nc3ccc([S@@+]([O-])Cc4cncn4CCC)cc3)c2)cc1` (some centres unmarked) [Compound 48, (Ss)-(2E)-3-[5-[4-(2-butoxyethoxy)phenyl]-2-(3-methylpyrrolidin-1-yl)pyridin-3-yl]-2-methyl-N-[4-[[(1-propyl-1H-imidazol-5-yl)methyl]sulfinyl]phenyl]acrylamide] yielded an inhibition at 1 µM of 98%.
For `CCCCOCCOc1ccc(-c2cnc(N3CCC(COC(C)=O)C3)c(/C=C(\C)C(=O)Nc3ccc([S@@+]([O-])Cc4cncn4CCC)cc3)c2)cc1` (some centres unmarked) [Compound 49, (Ss)-(2E)-3-[2-[3-(acetoxymethyl)pyrrolidin-1-yl]-5-[4-(2-butoxyethoxy)phenyl]pyridin-3-yl]-2-methyl-N-(4-[[(1-propyl-1H-imidazol-5-yl)methyl]sulfinyl]phenyl]acrylamide], the inhibition at 1 µM was 100%.

Same assay, conditions: test compound 1 μM; [125I]-RANTES 100 pM; CCR5/CHO strains; room temperature, 40 minutes
For `CCCCOCCOc1ccc(-c2ccc(N3CCC(C(=O)OC)C3)c(/C=C(\C)C(=O)Nc3ccc([S@@+]([O-])Cc4cncn4CCC)cc3)c2)cc1` (single isomer, unassigned) [Compound 58, (Ss)-(2E)-3-[4′-(2-butoxyethoxy)-4-[3-(methoxycarbonyl)pyrrolidin-1-yl]-1,1′-biphenyl-3-yl]-2-methyl-N-[4-[[(1-propyl-1H-imidazol-5-yl)methyl]sulfinyl]phenyl]acrylamide], the “Binding Inhibitory Ratio (%)” value was 95%.
In the case of `CCCCOCCOc1ccc(-c2ccc(N3CCC(C(=O)O)C3)c(/C=C(\C)C(=O)Nc3ccc([S@@+]([O-])Cc4cncn4CCC)cc3)c2)cc1` (single isomer, unassigned) [Compound 60, (Ss)-(2E)-3-[4′-(2-butoxyethoxy)-4-(3-carboxypyrrolidin-1-yl)-1,1′-biphenyl-3-yl]-2-methyl-N-[4-[[(1-propyl-1H-imidazol-5-yl)methyl]sulfinyl]phenyl]acrylamide], the “Binding Inhibitory Ratio (%)” value is reported as 91%.
`CCCCOCCOc1ccc(-c2ccc(N3CCC(O)C3)c(/C=C(\C)C(=O)Nc3ccc([S@@+]([O-])Cc4cncn4CCC)cc3)c2)cc1` (some centres unmarked) [Compound 26] was tested, and the “Binding Inhibitory Ratio (%)” value was 90%.
With `CCCCOCCOc1ccc(-c2cc(/C=C(\C)C(=O)Nc3ccc([S@@+]([O-])Cc4cncn4CCC)cc3)c3c(c2)CCCN3C)cc1` [Compound 29, (S)-(2E)-3-[6-[4-(2-butoxyethoxy)phenyl]-1-methyl-1,2,3,4-tetrahydroquinolin-8-yl]-2-methyl-N-[4-[[(1-propyl-1H-imidazol-5-yl)methyl]sulfinyl]phenyl]-2-acrylic amide] the “Binding Inhibitory Ratio (%)” value was 100%.
